Data from US20230414735A1, “NEOANTIGENS AND METHODS OF THEIR USE” (priority 2016, published 2023).
Where no end group is shown, it is not given here.

target: HLA class I molecule; assay: HLA class I peptide binding affinity assay (inhibition of 125I-radiolabeled probe peptide binding to purified HLA); set-up: species or system human; details: allele A01.01; read-out: Observed Affinity (IC50; (nM))
Protocol: Epstein-Barr virus (EBV)-transformed homozygous cell lines, fibroblasts, CIR, or 721.22 transfectants are used as sources of HLA class I molecules. […] HLA molecules are purified from lysates by affinity chromatography. The lysates are passed over a column of Sepharose CL-4B beads coupled to an appropriate antibody. […] A 1/25 volume of 2.0 M Tris, pH 6.8, is added to the eluate to reduce the pH to […]. Eluates are then concentrated by centrifugation in Centriprep 30 concentrators (Amicon, Beverly, MA). Protein content is evaluated by a BCA protein assay (Pierce Chemical Co., Rockford, IL) and confirmed by SDS-PAGE.
Following incubation, MHC-peptide complexes are separated from free peptide by gel filtration on 7.8 mm×15 cm TSK200 columns (TosoHaas 16215, Montgomeryville, PA). Because the large size of the radiolabeled peptide used for the DRB1*1501 (DR2w2(31) assay makes separation of bound from unbound peaks more difficult under these conditions, all DRB1*1501 (DR2w2(31) assays were performed using a 7.8 mm×30 cm TSK2000 column eluted at 0.6 mLs/min. The eluate from the TSK columns is passed through a Beckman 170 radioisotope detector, and radioactivity is plotted and integrated using a Hewlett-Packard 3396A integrator, and the fraction of peptide bound is determined.
Radiolabeled peptides are iodinated using the chloramine-T method. […] All subsequent inhibition and direct binding assays are performed using these HLA concentrations.
Since under these conditions [label]<[HLA] and IC50≥[HLA], the measured IC50 values are reasonable approximations of the true KD values. […] For database purposes, and inter-experiment comparisons, relative binding values are compiled. These values can subsequently be converted back into IC50 nM values by dividing the IC50 nM of the positive controls for inhibition by the relative binding of the peptide of interest.
HLA binding assays were used to evaluate either the affinity of interaction of a given epitope with a selected HLA molecule or the stability.
The measurements are plotted against the predicted affinity in FIG. 1.

In order of falling IC50:
1. YMANGSLLNY  13.2 nM
2. YTTNAFSGEY  10.5 nM

same assay, conditions: allele A02.01; read-out: Observed Affinity (IC50; (nM))

In order of falling IC50:
1. YMANGSLLN  4440 nM
2. VVPLSDLLL  2550 nM
3. YLGNHMNIAN  1340 nM
4. VVPLCDLLL  1200 nM
5. YIIIEFMTYG  186 nM
6. YITAFFLLDI  64.5 nM
7. YLTKWPKFFL  42.9 nM

system: HLA Class I molecules; assay: HLA class I binding stability assay (pMHC-I complex dissociation, 125I-labeled β2m, scintillation counts); set-up: species or system human; details: allele A02.01; 37° C.
Protocol: These reactions are carried out in streptavidin coated microplates to bind th biotinylated MHC-I heavy chains to the surface and allow measurement of radiolabeled light chain to monitor complex formation. Dissociation is initiated by addition of higher concentations of unlabled light-chain and incubation at 37° C. Stability is defined as the length of time in hours it takes for half of the complexes to dissociate, as measured by scintillation counts

In order of falling “Stability (T1/2 (h))” value:
1. CSCC[C@H](NC(=O)[C@@H](NC(=O)[C@H](Cc1ccc(O)cc1)NC(=O)[C@H](C)NC(=O)[C@H](CCSC)NC(=O)[C@@H](NC(=O)[C@@H](N)Cc1ccc(O)cc1)C(C)C)C(C)C)C(=O)N[C@@H](C)C(=O)NCC(=O)N[C@H](C(=O)O)C(C)C  20.9 h
2. CC(C)C[C@H](NC(=O)[C@@H](N)CCCNC(=N)N)C(=O)N[C@@H](CO)C(=O)N[C@@H](CO)C(=O)N[C@@H](CS)C(=O)N[C@H](C(=O)N1CCC[C@H]1C(=O)N[C@H](C(=O)N[C@@H](C)C(=O)O)C(C)C)C(C)C  18.7 h
3. CC[C@H](C)[C@H](NC(=O)[C@H](Cc1ccc(O)cc1)NC(=O)[C@H](CC(C)C)NC(=O)[C@@H](N)CC(C)C)C(=O)N[C@H](C(=O)N[C@@H](C)C(=O)N[C@@H](Cc1ccccc1)C(=O)N[C@@H](Cc1ccccc1)C(=O)N[C@@H](CC(C)C)C(=O)O)[C@@H](C)O  17 h
4. CSCC[C@H](NC(=O)[C@H](CC(C)C)NC(=O)[C@@H](N)CCCCN)C(=O)N[C@@H](CC(C)C)C(=O)N[C@@H](CC(C)C)C(=O)N[C@@H](CCCNC(=N)N)C(=O)N[C@@H](CC(C)C)C(=O)N[C@@H](CC(N)=O)C(=O)N[C@@H](CC(C)C)C(=O)O  16.9 h
5. CC(C)C[C@H](NC(=O)[C@H](CO)NC(=O)[C@H](CS)NC(=O)[C@H](CCC(=O)O)NC(=O)[C@H](Cc1c[nH]c2ccccc12)NC(=O)[C@H](CC(C)C)NC(=O)[C@H](C)NC(=O)[C@H](CC(C)C)NC(=O)[C@H](CC(C)C)NC(=O)[C@@H](N)Cc1ccccc1)C(=O)O  10.8 h
6. CC(C)C[C@H](NC(=O)[C@@H](N)Cc1ccccc1)C(=O)N[C@@H](CCC(N)=O)C(=O)N[C@@H](CCC(=O)O)C(=O)N[C@@H](CCC(N)=O)C(=O)N[C@@H](Cc1ccc(O)cc1)C(=O)N[C@@H](Cc1c[nH]cn1)C(=O)N[C@@H](CCC(=O)O)C(=O)N[C@@H](C)C(=O)O  9.5 h
7. CC[C@H](C)[C@H](NC(=O)[C@H](CO)NC(=O)[C@H](Cc1c[nH]c2ccccc12)NC(=O)[C@H](Cc1c[nH]cn1)NC(=O)[C@H](C)NC(=O)[C@@H]1CCCN1C(=O)[C@H](CCSC)NC(=O)[C@H](CC(C)C)NC(=O)[C@@H](N)CO)C(=O)O  5 h
8. CC(C)C[C@H](NC(=O)[C@H](CO)NC(=O)[C@H](CS)NC(=O)[C@H](CCC(=O)O)NC(=O)[C@H](Cc1c[nH]c2ccccc12)NC(=O)[C@H](CC(C)C)NC(=O)[C@H](C)NC(=O)[C@H](CC(C)C)NC(=O)[C@@H](N)CC(C)C)C(=O)O  4 h
9. CC(C)C[C@H](NC(=O)[C@@H]1CCCN1C(=O)[C@H](CS)NC(=O)[C@H](CC(C)C)NC(=O)[C@H](Cc1c[nH]cn1)NC(=O)[C@H](CC(N)=O)NC(=O)CNC(=O)[C@H](CC(C)C)NC(=O)[C@@H](N)CO)C(=O)O  3.5 h
10. CSCC[C@H](NC(=O)[C@@H](NC(=O)[C@H](Cc1ccc(O)cc1)NC(=O)[C@H](C)NC(=O)[C@H](CCSC)NC(=O)[C@@H](NC(=O)[C@@H](N)Cc1ccc(O)cc1)C(C)C)C(C)C)C(=O)N[C@@H](C)C(=O)NCC(=O)O  2.5 h
11. CC[C@H](C)[C@H](NC(=O)[C@@H]1CCCN1C(=O)[C@H](CC(C)C)NC(=O)[C@H](Cc1ccccc1)NC(=O)[C@H](CC(C)C)NC(=O)[C@H](CO)NC(=O)[C@H](CC(=O)O)NC(=O)[C@@H](NC(=O)[C@H](CC(C)C)NC(=O)[C@@H](N)CCSC)[C@@H](C)O)C(=O)O  1 h
12. CC[C@H](C)[C@H](NC(=O)[C@H](CCC(N)=O)NC(=O)[C@@H](N)CO)C(=O)N[C@@H](CCSC)C(=O)N[C@@H](CO)C(=O)N[C@@H](CC(C)C)C(=O)N[C@@H](Cc1c[nH]c2ccccc12)C(=O)NCC(=O)N[C@@H](CC(C)C)C(=O)O  1 h
13. CSCC[C@H](N)C(=O)N[C@@H](C)C(=O)N[C@@H](CC(C)C)C(=O)N[C@@H](CC(N)=O)C(=O)N[C@@H](CO)C(=O)N[C@@H](CCC(=O)O)C(=O)N[C@@H](C)C(=O)N[C@@H](CC(C)C)C(=O)N[C@@H](CO)C(=O)N[C@H](C(=O)O)C(C)C  0.7 h
14. CC(C)C[C@H](N)C(=O)N[C@H](C(=O)N[C@H](C(=O)N[C@H](C(=O)NCC(=O)N[C@@H](C)C(=O)N[C@H](C(=O)NCC(=O)N[C@H](C(=O)O)C(C)C)C(C)C)C(C)C)C(C)C)C(C)C  0.6 h
15. CC[C@H](C)[C@H](NC(=O)[C@H](CCCCN)NC(=O)[C@H](CO)NC(=O)[C@H](CCC(=O)O)NC(=O)[C@H](C)NC(=O)[C@H](CCCCN)NC(=O)[C@H](CC(C)C)NC(=O)[C@H](Cc1ccccc1)NC(=O)[C@H](CCSC)NC(=O)[C@@H](N)Cc1ccc(O)cc1)C(=O)O  0.6 h
16. CC[C@H](C)[C@H](NC(=O)[C@@H](NC(=O)[C@H](CC(C)C)NC(=O)[C@@H](NC(=O)[C@@H]1CCCN1C(=O)[C@H](CCCNC(=N)N)NC(=O)[C@H](Cc1c[nH]c2ccccc12)NC(=O)[C@H](CC(N)=O)NC(=O)[C@H](CCSC)NC(=O)CN)[C@@H](C)CC)[C@@H](C)O)C(=O)O  0.5 h
17. CC(C)C[C@H](NC(=O)[C@H](CO)NC(=O)[C@H](CC(N)=O)NC(=O)[C@H](CS)NC(=O)[C@H](CCC(=O)O)NC(=O)[C@H](Cc1c[nH]cn1)NC(=O)[C@H](CC(C)C)NC(=O)[C@@H](NC(=O)[C@@H](N)CCC(N)=O)C(C)C)C(=O)O  0.5 h
18. CC[C@H](C)[C@H](NC(=O)[C@@H]1CCCN1C(=O)[C@H](CCCNC(=N)N)NC(=O)[C@H](Cc1c[nH]c2ccccc12)NC(=O)[C@H](CC(N)=O)NC(=O)[C@H](CCSC)NC(=O)CNC(=O)CNC(=O)[C@H](CCSC)NC(=O)[C@@H](N)CS)C(=O)O  0.4 h
19. CC[C@H](C)[C@H](NC(=O)[C@@H](NC(=O)[C@H](CC(C)C)NC(=O)[C@@H](NC(=O)[C@@H]1CCCN1C(=O)[C@H](CCCNC(=N)N)NC(=O)[C@H](CCC(N)=O)NC(=O)[C@H](CC(N)=O)NC(=O)[C@H](CCSC)NC(=O)CN)[C@@H](C)CC)[C@@H](C)O)C(=O)O  0.4 h
20. CC[C@H](C)[C@H](NC(=O)[C@H](CO)NC(=O)[C@H](Cc1c[nH]c2ccccc12)NC(=O)[C@H](Cc1c[nH]cn1)NC(=O)[C@H](C)NC(=O)[C@@H]1CCCN1C(=O)[C@H](CCSC)NC(=O)[C@H](CC(C)C)NC(=O)[C@H](CO)NC(=O)[C@@H](N)CC(C)C)C(=O)O  0.4 h
21. CSCC[C@H](NC(=O)[C@H](CC(C)C)NC(=O)[C@H](CO)NC(=O)[C@H](CC(C)C)NC(=O)[C@@H]1CCCN1C(=O)[C@H](CCC(N)=O)NC(=O)[C@H](CCSC)NC(=O)[C@H](CCC(N)=O)NC(=O)[C@@H](N)Cc1ccccc1)C(=O)O  0.3 h
22. CC[C@H](C)[C@H](NC(=O)[C@@H](NC(=O)[C@H](CC(C)C)NC(=O)[C@@H](NC(=O)[C@@H]1CCCN1C(=O)[C@H](CCCNC(=N)N)NC(=O)[C@H](CCCNC(=N)N)NC(=O)[C@H](CC(N)=O)NC(=O)[C@H](CCSC)NC(=O)[C@@H](N)CO)[C@@H](C)CC)[C@@H](C)O)C(=O)O  0.3 h

same assay, conditions: allele A02.01; pMHC-I dissociation at 37° C.

In order of rising “Stability (T1/2 (h))” value:
1. CSCC[C@H](NC(=O)[C@H](CCC(=O)O)NC(=O)[C@H](CCCNC(=N)N)NC(=O)[C@H](CC(C)C)NC(=O)[C@H](Cc1ccc(O)cc1)NC(=O)[C@H](CC(N)=O)NC(=O)[C@H](CC(C)C)NC(=O)[C@H](CC(C)C)NC(=O)[C@@H](N)CO)C(=O)O  3 h
2. CC[C@H](C)[C@H](NC(=O)[C@H](CC(C)C)NC(=O)[C@@H]1CCCN1C(=O)[C@H](Cc1ccccc1)NC(=O)[C@H](CC(C)C)NC(=O)[C@@H](N)CCC(=O)O)C(=O)N[C@@H](Cc1ccccc1)C(=O)N1CCC[C@H]1C(=O)N[C@@H](C)C(=O)O  5.1 h
3. CC(C)[C@H](NC(=O)[C@H](CO)NC(=O)[C@H](Cc1ccccc1)NC(=O)[C@H](Cc1ccccc1)NC(=O)[C@H](Cc1ccccc1)NC(=O)[C@H](Cc1ccccc1)NC(=O)[C@H](CS)NC(=O)[C@@H](NC(=O)[C@@H](N)CO)C(C)C)C(=O)O  9.4 h

same assay, conditions: allele B07.02; 37° C.

With `CSCC[C@H](NC(=O)[C@H](CC(C)C)NC(=O)[C@@H](N)CCCCN)C(=O)N[C@@H](CC(C)C)C(=O)N[C@@H](CC(C)C)C(=O)N[C@@H](CCCNC(=N)N)C(=O)N[C@@H](CC(C)C)C(=O)N[C@@H](CC(N)=O)C(=O)N[C@@H](CC(C)C)C(=O)O` the “Stability (T1/2 (h))” value was 1.5 h.

same assay, conditions: allele B08.01; 37° C.

In order of rising “Stability (T1/2 (h))” value:
1. CC[C@H](C)[C@H](NC(=O)[C@H](CCCCN)NC(=O)[C@H](CO)NC(=O)[C@H](CCC(=O)O)NC(=O)[C@H](C)NC(=O)[C@H](CCCCN)NC(=O)[C@H](CC(C)C)NC(=O)[C@H](Cc1ccccc1)NC(=O)[C@H](CCSC)NC(=O)[C@@H](N)Cc1ccc(O)cc1)C(=O)O  0.4 h
2. CC(C)C[C@H](NC(=O)[C@@H]1CCCN1C(=O)[C@H](CS)NC(=O)[C@H](CC(C)C)NC(=O)[C@H](Cc1c[nH]cn1)NC(=O)[C@H](CC(N)=O)NC(=O)CNC(=O)[C@H](CC(C)C)NC(=O)[C@@H](N)CO)C(=O)O  0.5 h
3. CSCC[C@H](NC(=O)[C@@H](NC(=O)[C@H](Cc1ccc(O)cc1)NC(=O)[C@H](C)NC(=O)[C@H](CCSC)NC(=O)[C@@H](NC(=O)[C@@H](N)Cc1ccc(O)cc1)C(C)C)C(C)C)C(=O)N[C@@H](C)C(=O)NCC(=O)O  1.2 h
